Experimental data taken from patent publication EP4603105A1, “PHARMACEUTICAL COMPOSITION CONTAINING CYCLIC COMPOUND HAVING SELECTIVE KRAS INHIBITORY EFFECT AGAINST HRAS AND NRAS” (CHUGAI SEIYAKU KABUSHIKI KAISHA, priority 2022, dated 2024).
*1 amine or outer side, *2 acyl side, *3 side chain or, on linkers, in order; H or OH if unused. Where a SMILES comes first, the peptide text is derived from it. Bridges are numbered along the chain shown (N, C = ends). [ ]: non-standard residue; d: D form. The star is where a group is joined. hPhe(3-Cl-4-CF3) = N[C@@H](CCc1ccc(C(F)(F)F)c(Cl)c1)C(=O)O; NPrPhe(4-CF3) = CCCN[C@@H](Cc1ccc(C(F)(F)F)cc1)C(=O)O; X26 = CCCN([C@@H](Cc1ccc(F)cc1)C(=O)[*:2])[*:1]; NMeGly(cPent) = CN[C@H](C(=O)O)C1CCCC1; Hyp = O=C(O)[C@@H]1C[C@@H](O)CN1; NMeD = CN[C@@H](CC(=O)O)C(=O)O; NMeL = CN[C@@H](CC(C)C)C(=O)O; Morpholide = C1CN(*)CCO1; NMeA = CN[C@@H](C)C(=O)O; Ac5c = NC1(C(=O)O)CCCC1; Aze = O=C(O)[C@@H]1CCN1; Sar = CNCC(=O)O

Experiments:
[1] = test system: human lung cancer strain NCI-H441; format: cell-based
Outline: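 Proliferation was scored by […] measured after the reagent was added to cultures kept at 37°C in 5% carbon dioxide.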

[2] = molecular target: GDP-bound NRAS wild-type protein (Homo sapiens, UniProt P01111); assay: Binding to NRAS by surface plasmon resonance (SPR), KD and KD ratio to KRAS
Chain of GDP-bound NRAS wild-type protein (P01111 whole entry): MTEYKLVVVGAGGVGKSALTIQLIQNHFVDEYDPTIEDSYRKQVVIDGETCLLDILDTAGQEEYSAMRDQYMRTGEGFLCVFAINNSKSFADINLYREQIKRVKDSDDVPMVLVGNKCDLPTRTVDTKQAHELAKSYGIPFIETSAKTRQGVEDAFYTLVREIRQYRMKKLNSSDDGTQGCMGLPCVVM
Outline: (§1)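 Single-cycle kinetics on GDP-loaded biotin-Avi RAS captured to ~100–300 RU; 75 s ascending injections, 100 µL/min, 30°C. HBS pH 7.4 + 10 mM MgCl2/10 µM GDP/4% DMSO. 1:1 fit, KD.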

HRAS wild-type protein = HRAS wild-type protein (Homo sapiens, UniProt P01112); assay: Binding to HRAS by surface plasmon resonance (SPR), KD and KD ratio to KRAS
Chain of HRAS wild-type protein (P01112 whole entry): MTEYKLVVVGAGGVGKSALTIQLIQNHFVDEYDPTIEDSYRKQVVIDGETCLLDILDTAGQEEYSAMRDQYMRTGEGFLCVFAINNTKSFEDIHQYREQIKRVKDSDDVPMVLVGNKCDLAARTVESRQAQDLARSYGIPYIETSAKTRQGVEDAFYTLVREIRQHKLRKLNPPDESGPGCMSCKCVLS
Outline: as §1

[3] = ratio of the KD value with respect to GDP-bound NRAS wild-type protein to the KD value with respect to KRAS
[4] = ratio of the KD value with respect to HRAS wild-type protein to the KD value with respect to KRAS
[5] = ratio of KD for GDP-bound NRAS wild-type protein to KD for KRAS
[6] = ratio of KD for HRAS wild-type protein to KD for KRAS
[7] = ratio of KD value for GDP-bound NRAS wild-type protein to KD value for KRAS (SPR)
[8] = ratio of KD value for HRAS wild-type protein to KD value for KRAS (SPR)

| IC50 [1] | Compound | NRAS /KRAS [2, 3] | HRAS /KRAS (HRAS wild-type protein; [4]) | NRAS /KRAS [2, 5] | HRAS /KRAS (HRAS wild-type protein; [6]) | NRAS /KRAS [2, 7] | HRAS /KRAS (HRAS wild-type protein; [8]) |
| --- | --- | --- | --- | --- | --- | --- | --- |
| 17.3 nM | CCO[C@@H]1C[C@H]2C(=O)NC3(CCC3)C(=O)N(C)[C@@H](C3CCCC3)C(=O)N(C)[C@H](C(=O)N3CCOCC3)CC(=O)N(C)[C@@H](CC)C(=O)N[C@@H]([C@@H](C)CC)C(=O)N3CC[C@H]3C(=O)N(C)[C@H]3C[C@@H](C)CCN(C3=O)[C@@H](Cc3ccc(C(F)(F)F)cc3)C(=O)N(C)CC(=O)N[C@@H](CCc3cc(F)c(C(F)(F)F)c(F)c3)C(=O)N2C1 [PP1028] |  |  | B (a compound having 3 or more and less than 10 is denoted as B) | B (a compound having 3 or more and less than 10 is denoted as B) |  |  |
| 647 nM | CC[C@H](C)[C@@H]1NC(=O)[C@H](CC(C)C)N(C)C(=O)C[C@@H](C(=O)N2CCOCC2)N(C)C(=O)[C@H](C2CCCC2)N(C)C(=O)C2(CCCC2)NC(=O)[C@@H]2CCCN2C(=O)[C@H](CCc2cc(F)c(C(F)(F)F)c(F)c2)NC(=O)CN(C)C(=O)[C@H](Cc2ccc(C(F)(F)F)cc2)N2CCCC[C@@H](C2=O)N(C)C(=O)[C@H](C)N(C)C1=O [PP0544] | B (a compound having 3 or more and less than 10 is denoted as B) | B (a compound having 3 or more and less than 10 is denoted as B) |  |  |  |  |
| 5.1 nM | CCO[C@@H]1C[C@H]2C(=O)N(C)C3(CCC3)C(=O)N(C)[C@@H](C3CCCC3)C(=O)N(C)[C@H](C(=O)N(C)C)CC(=O)N(C)[C@@H](CC3CC3)C(=O)N[C@@H]([C@@H](C)CC)C(=O)N3CCC[C@H]3C(=O)N(C)[C@H]3C/C=C\CCN(C3=O)[C@@H](Cc3ccc(C)cc3)C(=O)N(C)CC(=O)N[C@@H](CCc3cc(F)c(C(F)(F)F)c(F)c3)C(=O)N2C1 [PP1797] |  |  |  |  | A (a compound having 10 or more and less than 20 is denoted as A) | A (a compound having 10 or more and less than 20 is denoted as A) |
| 128 nM | CCO[C@@H]1C[C@H]2C(=O)NC3(CC(C)(C)C3)C(=O)N(C)[C@@H](C3CCCC3)C(=O)N(C)[C@H](C(=O)N(C)C)CC(=O)N(C)[C@@H]([C@H](C)OC)C(=O)N[C@@H]([C@@H](C)CC)C(=O)N3CCC[C@H]3C(=O)N(C)[C@H]3C/C=C\CCN(C3=O)[C@@H](Cc3ccc(C)cc3)C(=O)N(C)CC(=O)N[C@@H](CCc3ccc(C(F)(F)F)c(Cl)c3)C(=O)N2C1 [PP3201] |  |  | A (a compound having 10 or more and less than 20 is denoted as A) | A (a compound having 10 or more and less than 20 is denoted as A) |  |  |
| 28 nM | CCCOC[C@H]1C(=O)N[C@@H]([C@@H](C)CC)C(=O)N(C)CC(=O)N(C)[C@H]2C/C=C\CCN(C2=O)[C@@H](Cc2ccc(C(F)(F)F)cc2)C(=O)N(C)CC(=O)N[C@@H](CCc2cc(F)c(C(F)(F)F)c(F)c2)C(=O)N2C[C@@H](C)C[C@H]2C(=O)NC2(CC(C)(C)C2)C(=O)N(C)[C@@H](C2CCCC2)C(=O)N(C)[C@H](C(=O)N(C)CC)CC(=O)N1C [PP2043] | A (a compound having 10 or more and less than 20 is denoted as A) | A (a compound having 10 or more and less than 20 is denoted as A) |  |  |  |  |
| 14.9 nM | CCO[C@@H]1C[C@H]2C(=O)NC3(CCC3)C(=O)N(C)[C@@H](C3CCCC3)C(=O)N(C)[C@H](C)CC(=O)N(C)[C@@H](CC)C(=O)N[C@@H]([C@@H](C)CC)C(=O)N(C)CC(=O)N(C)[C@H]3C/C=C\CCN(C3=O)[C@@H](Cc3ccc(C(F)(F)F)cc3)C(=O)N(C)CC(=O)N[C@@H](CCc3cc(F)c(C(F)(F)F)c(F)c3)C(=O)N2C1 [PP1095] |  |  | B (a compound having 3 or more and less than 10 is denoted as B) | B (a compound having 3 or more and less than 10 is denoted as B) |  |  |
| 114 nM | CCO[C@@H]1C[C@H]2C(=O)NC3(CCC3)C(=O)N(C)[C@@H](C3CCCC3)C(=O)N(C)[C@H](C(=O)N(C)C)CC(=O)N(C)[C@@H](Cc3cccc(Cl)c3)C(=O)N[C@@H]([C@@H](C)CC)C(=O)N(C)CC(=O)N(C)[C@H]3CCCCCN(C3=O)[C@@H](Cc3ccc(C(F)(F)F)cc3)C(=O)N(C)CC(=O)N[C@@H](CCc3cc(F)c(C(F)(F)F)c(F)c3)C(=O)N2C1 [PP0939] |  |  | B (a compound having 3 or more and less than 10 is denoted as B) | B (a compound having 3 or more and less than 10 is denoted as B) |  |  |
| 2.2 nM | CCO[C@@H]1C[C@H]2C(=O)NC3(CC(C)(C)C3)C(=O)N(C)[C@@H](C3CCCC3)C(=O)N(C)[C@H](C(=O)N(C)C)CC(=O)N(C)[C@@H](CC3CC3)C(=O)N[C@@H]([C@@H](C)CC)C(=O)N(C)CC(=O)N(C)[C@H]3C/C=C\CCN(C3=O)[C@@H](Cc3ccc(C(F)(F)F)cc3)C(=O)N(C)CC(=O)N[C@@H](CCc3cc(F)c(C(F)(F)F)c(F)c3)C(=O)N2C1 [PP1568] |  |  |  |  | A (a compound having 10 or more and less than 20 is denoted as A) | A (a compound having 10 or more and less than 20 is denoted as A) |
| 2.3 nM | CCO[C@@H]1C[C@H]2C(=O)NC3(CC(F)(F)C3)C(=O)N(C)[C@@H](C3CCCC3)C(=O)N(C)[C@H](C(=O)N(C)C)CC(=O)N(C)[C@@H](CC(C)C)C(=O)N[C@@H]([C@@H](C)CC)C(=O)N(C)CC(=O)N(C)[C@H]3C/C=C\CCN(C3=O)[C@@H](Cc3ccc(C(F)(F)F)cc3)C(=O)N(C)CC(=O)N[C@@H](CCc3cc(F)c(C(F)(F)F)c(F)c3)C(=O)N2C1 [PP1741] |  |  |  |  | A (a compound having 10 or more and less than 20 is denoted as A) | B (a compound having 3 or more and less than 10 is denoted as B) |
| 5 nM | CCO[C@@H]1C[C@H]2C(=O)NC3(CC(C)(C)C3)C(=O)N(C)[C@@H](C3CCCC3)C(=O)N(C)[C@H](C(=O)N(C)CC)CC(=O)N(C)[C@@H](CC(C)C)C(=O)N[C@@H]([C@@H](C)CC)C(=O)N(C)CC(=O)N(C)[C@H]3C/C=C\CCN(C3=O)[C@@H](Cc3ccc(C(F)F)cc3)C(=O)N(C)CC(=O)N[C@@H](CCc3ccc(C(F)(F)F)c(OC)c3)C(=O)N2C1 [PP2828] |  |  | A (a compound having 10 or more and less than 20 is denoted as A) | A (a compound having 10 or more and less than 20 is denoted as A) |  |  |
| 3.8 nM | CC[C@H](C)[C@@H]1NC(=O)[C@H](CC(F)F)N(C)C(=O)C[C@@H](C(=O)N(C)C)N(C)C(=O)[C@H](C2CCCC2)N(C)C(=O)C2(CC(C)(C)C2)NC(=O)[C@@H]2C[C@H](C)CN2C(=O)[C@H](CCc2cc(F)c(C(F)(F)F)c(F)c2)NC(=O)CN(C)C(=O)[C@H](Cc2ccc(C(F)(F)F)cc2)N2CC/C=C\C[C@@H](C2=O)N(C)C(=O)CN(C)C1=O [PP1658] |  |  |  |  | A (a compound having 10 or more and less than 20 is denoted as A) | A (a compound having 10 or more and less than 20 is denoted as A) |
| 5.4 nM | CCC[C@H]1C(=O)N[C@@H]([C@@H](C)CC)C(=O)N(C2CC2)CC(=O)N(C)[C@H]2C/C=C\CCN(C2=O)[C@@H](Cc2ccc(C(F)(F)F)cc2)C(=O)N(C)CC(=O)N[C@@H](CCc2ccc(C(F)(F)F)c(OC)c2)C(=O)N2C[C@H](OCC)C[C@H]2C(=O)N(C)C2(CCC2)C(=O)N(C)[C@@H](C2CCCC2)C(=O)N(C)[C@H](C(=O)N2CCCC2)CC(=O)N1C [PP3097] |  |  | A (a compound having 10 or more and less than 20 is denoted as A) | A (a compound having 10 or more and less than 20 is denoted as A) |  |  |
| 2.6 nM | CCCN1C(=O)[C@@H]2CCN2C(=O)[C@H](C)N(C)C(=O)[C@H]([C@@H](C)CC)NC(=O)[C@H](CC(C)C)N(C)C(=O)C[C@@H](C(=O)N(C)C)NC(=O)[C@H](C2CCCC2)N(C)C(=O)C2(CCCC2)NC(=O)[C@@H]2C[C@@H](OCC)CN2C(=O)[C@H](CCc2ccc(C(F)(F)F)c(Cl)c2)NC(=O)CN(C)C(=O)[C@@H]1Cc1ccc(C(F)(F)F)cc1 [PP0383] ([NMeL]I[NMeA][Aze][NPrPhe(4-CF3)][Sar][hPhe(3-Cl-4-CF3)][Hyp](Et)[Ac5c][NMeGly(cPent)]D-NMe2; lactam N-11) |  |  | C (A compound having a KD ratio of 0.1 or more and less than 3 is denoted as C) | B (a compound having 3 or more and less than 10 is denoted as B) |  |  |
| 5.4 nM | CCCN1C(=O)CN(C)C(=O)CN(C)C(=O)[C@H]([C@@H](C)CC)NC(=O)[C@H](CC(C)C)N(C)C(=O)C[C@@H](C(=O)N2CCOCC2)N(C)C(=O)[C@H](C2CCCC2)N(C)C(=O)C2(CCCC2)NC(=O)[C@@H]2CCCN2C(=O)[C@H](CCc2ccc(C(F)(F)F)c(Cl)c2)NC(=O)CN(C)C(=O)[C@@H]1Cc1ccc(F)cc1 [PP0214] ([NMeL]I[Sar][Sar][X26][Sar][hPhe(3-Cl-4-CF3)]P[Ac5c][NMeGly(cPent)][NMeD]-Morpholide; lactam N-11) |  |  | B (a compound having 3 or more and less than 10 is denoted as B) | C (A compound having a KD ratio of 0.1 or more and less than 3 is denoted as C) |  |  |

| Compound | IC50 [1] | NRAS /KRAS [2, 3] | HRAS /KRAS (HRAS wild-type protein; [4]) | NRAS /KRAS [2, 5] | HRAS /KRAS (HRAS wild-type protein; [6]) | NRAS /KRAS [2, 7] | HRAS /KRAS (HRAS wild-type protein; [8]) |
| --- | --- | --- | --- | --- | --- | --- | --- |
| CC[C@H](C)[C@@H]1NC(=O)[C@H](CC(C)C)N(C)C(=O)C[C@@H](C(=O)N2CCCCC2)N(C)C(=O)[C@H](C2CCCC2)N(C)C(=O)C2(CCCC2)NC(=O)[C@@H]2CCCN2C(=O)[C@H](CCc2cc(F)c(C(F)(F)F)c(F)c2)NC(=O)CN(C)C(=O)[C@H](Cc2ccc(C(F)(F)F)cc2)N2CCCC[C@@H](C2=O)N(C)C(=O)CN(C)C1=O [PP0572] | 9 nM | B (a compound having 3 or more and less than 10 is denoted as B) | B (a compound having 3 or more and less than 10 is denoted as B) |  |  |  |  |
